Results reported in paper PMC3662833 (Journal of molecular biology, 2011).

Experiments:
Unmodified ASL^Lys3UUU = experiment: FITC-peptide fluorescence quenching titration with ASL; format: binding, human; details: in words; for interaction with unmodified ASL^Lys3UUU: FITC-peptide fluorescence quenching
[1] = in words
unmodified hASL^Lys3UUU = experiment: ESI-MS complex formation; format: binding, human; details: preliminary, data not shown, in words
ASL^Val3UAC-m^6A37 = experiment: FITC-peptide fluorescence quenching titration with ASL; format: binding, E. coli; details: in words
Peptide structure by CD = format: physicochemical; details: in words
E. coli ASL^Val3UAC = experiment: ESI-MS complex formation; format: binding; details: peptide in five-fold excess, preliminary, data not shown

Sequence: AGPVPLHSLSYYYNQ [Peptide P31, reference compound]
- RNA binding (control peptide) (Unmodified ASL^Lys3UUU; control used as a baseline, ASL not specified, data not shown): non-RNA binding

Sequence: HRGYCRDRWNCGEYF [Peptide P15]
- solubility [1]: lacked the solubility required of the assay

Sequence: PHRQCSAPAKSCKILP [Peptide P17]
- interaction with unmodified ASL^Lys3UUU (Unmodified ASL^Lys3UUU): little to no interaction

Sequence: RVTHHAFLGAHRTVG [Peptide P6]
- RNA bound by P6 (unmodified hASL^Lys3UUU): small amounts
- interaction with unmodified ASL^Lys3UUU (Unmodified ASL^Lys3UUU): little to no interaction
- binding of ASL^Val3UAC-m^6A37 (ASL^Val3UAC-m^6A37): did not bind
- structure as determined by CD (Peptide structure by CD): lack of structure
- RNA in complex with P6 (E. coli ASL^Val3UAC): 50%
